In one data set the test system is apple reference gene. Briefly: Detached leaf assay, Ct of apple reference gene. It is filed as in vivo. To be noted: detached apple leaves treated with 28P-2. An excerpt: Water was used as a control.
For data set [1], the system named is Erwinia amylovora (ATCC 49946). Briefly: Minimum inhibitory concentration, serial dilutions of peptide. It is filed as cell-based. To be noted: for activity against Erwinia amylovora (MIC assay): Erwinia amylovora ATCC 49946, serial dilutions.
The next data set has as its system Xanthomonas perforans. Description: Minimum inhibitory concentration assay. To be noted: causes spot in tomato. It is filed as cell-based.
Data set [2] has as its system Xanthomonas euvesicatoria. Description: Minimum inhibitory concentration assay. The settings on record: causes spot in tomato. The format is cell-based.
The next data set deals with Pseudomonas syringae. Briefly: Minimum inhibitory concentration assay. To be noted: causes speck in tomato. It is filed as cell-based.
The subject of the next data set is Ralstonia solanaeceum. It is filed as cell-based. To be noted: causes bacterial wilt in tomato.

No end group written: not given here.

As to KRIVQRIKDFLRGPGRKRIVQRIKDFLR [28P-2], the “level (Ct) of apple reference gene upon treatment” value in the data set with apple reference gene is listed as “remained unchanged”.

As for “KVLSRVHAALKSIFDLGPGRKVLSRVHAALKSIFDL [36P]”, the “toxicity to Erwinia amylovora by MIC, compared with 28P-2” value in data set [1] (36P relative to 28P-2, FIG. 5) is recorded as “significantly more toxic”. Moreover, the “activity against Erwinia amylovora (MIC assay)” value (“activity … (MIC assay)” for short) in data set [1] is “significant activity”. Further, the “activity against Xanthomonas perforans” value in the data set with Xanthomonas perforans is recorded as “significant activity”. Besides, in data set [2], the “activity against Xanthomonas euvesicatoria” value was “significant activity”. Besides, in the data set on Pseudomonas syringae, the “activity against Pseudomonas syringae” value is “significant activity”. In the data set with Ralstonia solanaeceum, the “activity against Ralstonia solanaeceum” value is on record as “significant activity”.

As to KEIVRRIEKFLRGPGRKRIVERIEKFLR [28P-8], in data set [1], the “activity … (MIC assay)” value is given as “active”.

Take KLIKLIKKILKKGPGRKLIKLIKKILKK [28P-4]: the “activity … (MIC assay)” value in data set [1] is “active”.

For the origin of these results see patent US20230147468A1, “RECOMBINANT PEPTIDE TO TREAT FIRE BLIGHT” (INNATE IMMUNITY LLC, priority 2020, published 2023).
